Experimental data: patent publication US20200207759A1, “NEW PROPANAMINE DERIVATIVES FOR TREATING PAIN AND PAIN RELATED CONDITIONS” (ESTEVE PHARMACEUTICALS, S.A., priority 2017, published 2020)

Key:
[1] = biological target: Human norepinephrine transporter (NET) (Homo sapiens, UniProt P23975); assay: Binding assay to human norepinephrine transporter (NET), [3H]-Nisoxetin; conditions: human NET enriched membranes, 5 nM [3H]-Nisoxetin; read-out: Ki (nM) NET Hum
Procedure: Binding Assay to Human Norepinephrine Transporter (NET).
Human norepinephrine transporter (NET) enriched membranes (5 μg) were incubated with 5 nM of radiolabeled [3H]-Nisoxetin in assay buffer containing 50 mM Tris-HCl, 120 mM NaCl, 5 mM KCl, pH 7.4.
NSB (non specific binding) was measured by adding 1 μM. After 60 min incubation at 4° C., binding reaction was terminated by filtering through Multiscreen GF/C (Millipore) presoaked in 0.5% polyethyleneimine in Vacuum Manifold Station, followed by 3 washes with ice-cold filtration buffer containing 50 mM Tris-HCl, 0.9% NaCl, pH 7.4. Filter plates were dried at 60° C. for 1 hour and 30 μl of scintillation cocktail were added to each well before radioactivity reading.

[2] = biological target: Human α2δ-1 subunit of Cav2.2 calcium channel (Homo sapiens, UniProt P54289); assay: Binding assay to human α2δ-1 subunit of Cav2.2 calcium channel, [3H]-Gabapentin; conditions: human α2δ-1 enriched membranes, 15 nM [3H]-Gabapentin; read-out: Ki (nM) alpha2delta Hum
Procedure: Binding Assay to Human α2δ-1 Subunit of Cav2.2 Calcium Channel.
Human α2δ-1 enriched membranes (2.5 μg) were incubated with 15 nM of radiolabeled [3H]-Gabapentin in assay buffer containing Hepes-KOH 10 mM, pH 7.4.
NSB (non specific binding) was measured by adding 10 μM pregabalin. After 60 min incubation at 27° C., binding reaction was terminated by filtering through Multiscreen GF/C (Millipore) presoaked in 0.5% polyethyleneimine in Vacuum Manifold Station, followed by 3 washes with ice-cold filtration buffer containing 50 mM Tris-HCl, pH 7.4.
Filter plates were dried at 60° C. for 1 hour and 30 μl of scintillation cocktail were added to each well before radioactivity reading.
Readings were performed in a Trilux 1450 Microbeta radioactive counter (Perkin Elmer).

Chain of Human α2δ-1 subunit of Cav2.2 calcium channel (P54289 25-1103): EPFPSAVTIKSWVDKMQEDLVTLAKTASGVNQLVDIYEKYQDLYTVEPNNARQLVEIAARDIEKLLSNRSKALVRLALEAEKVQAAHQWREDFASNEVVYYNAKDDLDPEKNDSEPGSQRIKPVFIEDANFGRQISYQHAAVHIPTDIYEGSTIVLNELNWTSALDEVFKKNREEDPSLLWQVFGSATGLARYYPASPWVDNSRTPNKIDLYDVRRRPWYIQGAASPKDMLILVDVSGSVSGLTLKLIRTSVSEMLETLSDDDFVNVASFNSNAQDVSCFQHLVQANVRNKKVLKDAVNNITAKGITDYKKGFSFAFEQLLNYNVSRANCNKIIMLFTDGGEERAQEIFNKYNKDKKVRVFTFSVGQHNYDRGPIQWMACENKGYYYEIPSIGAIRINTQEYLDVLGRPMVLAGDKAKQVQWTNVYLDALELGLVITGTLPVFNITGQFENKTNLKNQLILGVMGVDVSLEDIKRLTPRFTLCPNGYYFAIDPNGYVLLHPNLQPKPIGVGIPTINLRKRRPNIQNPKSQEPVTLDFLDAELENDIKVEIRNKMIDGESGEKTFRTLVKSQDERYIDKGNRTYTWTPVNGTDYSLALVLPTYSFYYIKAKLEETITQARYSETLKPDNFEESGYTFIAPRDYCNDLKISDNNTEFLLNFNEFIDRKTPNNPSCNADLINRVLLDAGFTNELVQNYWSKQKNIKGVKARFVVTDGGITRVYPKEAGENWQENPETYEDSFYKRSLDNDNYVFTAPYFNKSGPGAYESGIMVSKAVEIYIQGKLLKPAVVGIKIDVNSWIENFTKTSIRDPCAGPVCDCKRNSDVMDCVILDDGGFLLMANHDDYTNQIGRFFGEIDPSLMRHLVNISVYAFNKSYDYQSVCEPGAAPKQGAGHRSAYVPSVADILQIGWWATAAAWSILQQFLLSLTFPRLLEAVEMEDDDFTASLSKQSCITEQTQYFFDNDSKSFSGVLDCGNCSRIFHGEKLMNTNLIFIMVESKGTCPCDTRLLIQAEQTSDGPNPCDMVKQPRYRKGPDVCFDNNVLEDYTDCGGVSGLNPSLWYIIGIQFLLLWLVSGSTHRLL
Chain of Human norepinephrine transporter (NET) (P23975 whole entry): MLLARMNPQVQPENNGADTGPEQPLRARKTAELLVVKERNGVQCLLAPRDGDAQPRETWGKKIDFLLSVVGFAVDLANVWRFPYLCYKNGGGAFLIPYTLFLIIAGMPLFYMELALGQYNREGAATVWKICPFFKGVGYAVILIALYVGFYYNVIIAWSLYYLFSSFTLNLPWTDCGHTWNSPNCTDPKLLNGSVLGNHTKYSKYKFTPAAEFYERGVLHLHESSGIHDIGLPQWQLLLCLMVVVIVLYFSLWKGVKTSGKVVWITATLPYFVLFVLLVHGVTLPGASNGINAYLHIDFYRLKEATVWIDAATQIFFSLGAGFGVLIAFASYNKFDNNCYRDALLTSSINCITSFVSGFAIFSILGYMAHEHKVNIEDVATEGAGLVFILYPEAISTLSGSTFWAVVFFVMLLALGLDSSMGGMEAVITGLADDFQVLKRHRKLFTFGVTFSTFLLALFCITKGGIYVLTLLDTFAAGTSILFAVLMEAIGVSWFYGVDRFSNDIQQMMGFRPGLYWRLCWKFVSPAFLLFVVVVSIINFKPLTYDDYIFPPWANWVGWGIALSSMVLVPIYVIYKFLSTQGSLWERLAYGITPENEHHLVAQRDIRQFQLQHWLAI

| SMILES | Ki [1] [nM] | Ki [2] [nM] |
| --- | --- | --- |
| CNCC[C@H](c1ccsc1)N1CC(C)(C)c2nc(C(F)(F)F)ccc21 (racemic) [Example 79, 3-(3,3-Dimethyl-5-(trifluoromethyl)-2,3-dihydro-1H-pyrrolo[3,2-b]pyridin-1-yl)-N-methyl-3-(thiophen-3-yl)propan-1-amine] | > 1000 | 100 to 500 |
| CNCC[C@H](c1cccs1)N1CC(C)(C)c2ncccc21 [Example 20, (R)-3-(3,3-Dimethyl-2,3-dihydro-1H-pyrrolo[3,2-b]pyridin-1-yl)-N-methyl-3-(thiophen-2-yl)propan-1-amine] | > 1000 | 100 to 500 |
| CCNCCC(c1cccs1)N1CCc2ncccc21 (centres unmarked) [Example 8, 3-(2,3-Dihydro-1H-pyrrolo[3,2-b]pyridin-1-yl)-N-ethyl-3-(thiophen-2-yl)propan-1-amine] | > 1000 | 100 to 500 |
| CNCC[C@@H](c1cccs1)N1c2ccccc2C[C@@H]1C (racemic) [Example 119, (S/R)—N-methyl-3-((S/R)-2-methylindolin-1-yl)-3-(thiophen-2-yl)propan-1-amine] | > 1000 | ≥ 3000 |
| CNCC[C@H](c1ccc(C)s1)N1CCc2ncccc21 [Example 44, (R)-3-(2,3-Dihydro-1H-pyrrolo[3,2-b]pyridin-1-yl)-N-methyl-3-(5-methylthiophen-2-yl)propan-1-amine] | > 1000 | 500 to 3000 |
| CNCC[C@H](c1cccs1)N1CCc2ncc(C(C)C)cc21 [Example 39, (R)-3-(6-Isopropyl-2,3-dihydro-1H-pyrrolo[3,2-b]pyridin-1-yl)-N-methyl-3-(thiophen-2-yl)propan-1-amine] | > 1000 | 100 to 500 |
| CNCC[C@@H](c1cccs1)N1CCc2ncc(C(C)C)cc21 [Example 38, (S)-3-(6-Isopropyl-2,3-dihydro-1H-pyrrolo[3,2-b]pyridin-1-yl)-N-methyl-3-(thiophen-2-yl)propan-1-amine] | > 1000 | ≥ 3000 |
| CNCC[C@@H](c1ccsc1)N1CCc2nc(C(C)C)ccc21 [Example 47, (S)-3-(5-Isopropyl-2,3-dihydro-1H-pyrrolo[3,2-b]pyridin-1-yl)-N-methyl-3-(thiophen-3-yl)propan-1-amine] | > 1000 | 500 to 3000 |
| CNCC[C@H](c1nccs1)N1CCc2ncccc21 [Example 54, (R)-3-(2,3-Dihydro-1H-pyrrolo[3,2-b]pyridin-1-yl)-N-methyl-3-(thiazol-2-yl)propan-1-amine] | > 1000 | ≥ 3000 |
| CNCCC(c1cccs1)N1CCc2ccc(C#N)cc21 (centres unmarked) [Example 94, 1-(3-(Methylamino)-1-(thiophen-2-yl)propyl)indoline-6-carbonitrile] | > 1000 | 100 to 500 |
| CNCCC(c1cccs1)N1CCCc2ncccc21 (centres unmarked) [Example 5, 3-(3,4-Dihydro-1,5-naphthyridin-1(2H)-yl)-N-methyl-3-(thiophen-2-yl)propan-1-amine] | > 1000 | 100 to 500 |
| CCC1(CC)CN(C(CCNC)c2ccsc2)c2cccnc21 (racemic) [Example 86, 3-(3,3-Diethyl-2,3-dihydro-1H-pyrrolo[3,2-b]pyridin-1-yl)-N-methyl-3-(thiophen-3-yl)propan-1-amine] | > 1000 | 500 to 3000 |
| CNCC[C@H](c1cccs1)N1CC(C)(C)c2ncc(F)cc21 [Example 106, (R)-3-(6-fluoro-3,3-dimethyl-2,3-dihydro-1H-pyrrolo[3,2-b]pyridin-1-yl)-N-methyl-3-(thiophen-2-yl)propan-1-amine] | > 1000 | < 100 |
| CNCCC(c1cccs1)N1CC(C)(C)c2ncc(C)cc21 (racemic) [Example 81, N-methyl-3-(thiophen-2-yl)-3-(3,3,6-trimethyl-2,3-dihydro-1H-pyrrolo[3,2-b]pyridin-1-yl)propan-1-amine] | > 1000 | < 100 |
| CNCC[C@H](c1cc(C)cs1)N1CCc2ncccc21 [Example 56, (R)-3-(2,3-Dihydro-1H-pyrrolo[3,2-b]pyridin-1-yl)-N-methyl-3-(4-methylthiophen-2-yl)propan-1-amine] | > 1000 | 500 to 3000 |
| CNCCC(c1cccs1)N1CC(C)(C)c2ncc(Cl)cc21 (centres unmarked) [Example 73, 3-(6-Chloro-3,3-dimethyl-2,3-dihydro-1H-pyrrolo[3,2-b]pyridin-1-yl)-N-methyl-3-(thiophen-2-yl)propan-1-amine] | > 1000 | 100 to 500 |

Now from value to molecule:

| Ki [1] [nM] | Ki [2] [nM] | SMILES |
| --- | --- | --- |
| > 1000 | 500 to 3000 | CNCC[C@H](c1ccsc1)N1CCc2nc(C)ccc21 [Example 62, (R)—N-methyl-3-(5-methyl-2,3-dihydro-1H-pyrrolo[3,2-b]pyridin-1-yl)-3-(thiophen-3-yl)propan-1-amine] |
| 500 to 1000 | 500 to 3000 | CNCCC(c1cccs1)N1CCc2ncccc21 (centres unmarked) [Example 3, 3-(2,3-Dihydro-1H-pyrrolo[3,2-b]pyridin-1-yl)-N-methyl-3-(thiophen-2-yl)propan-1-amine] |
| 500 to 1000 | 500 to 3000 | CNCCC(c1cccs1)N1CCc2cc(C#N)ccc21 (centres unmarked) [Example 96, 1-(3-(Methylamino)-1-(thiophen-2-yl)propyl)indoline-5-carbonitrile] |
| 500 to 1000 | 100 to 500 | CNCC[C@H](c1ccsc1)N1CCc2ncc(F)cc21 [Example 28, (R)-3-(6-Fluoro-2,3-dihydro-1H-pyrrolo[3,2-b]pyridin-1-yl)-N-methyl-3-(thiophen-3-yl)propan-1-amine] |
| 100 to 500 | 100 to 500 | CNCCC(c1cccs1)N1CC(C)(C)c2nc(OC)ccc21 (centres unmarked) [Example 99, 3-(5-Methoxy-3,3-dimethyl-2,3-dihydro-1H-pyrrolo[3,2-b]pyridin-1-yl)-N-methyl-3-(thiophen-2-yl)propan-1-amine] |
| < 100 | 500 to 3000 | CNCCC(c1cccs1)N1CCc2ccccc21 (centres unmarked) [Example 1, 3-(Indolin-1-yl)-N-methyl-3-(thiophen-2-yl)propan-1-amine] |
| 100 to 500 | 100 to 500 | CNCC[C@@H](c1ccsc1)N1CCc2ncccc21 [Example 23, (S)-3-(2,3-Dihydro-1H-pyrrolo[3,2-b]pyridin-1-yl)-N-methyl-3-(thiophen-3-yl)propan-1-amine] |
| 100 to 500 | < 100 | CNCCC(c1cccs1)N1CC(C)(C)c2nc(C)ccc21 (centres unmarked) [Example 64, N-methyl-3-(thiophen-2-yl)-3-(3,3,5-trimethyl-2,3-dihydro-1H-pyrrolo[3,2-b]pyridin-1-yl)propan-1-amine] |
| 100 to 500 | 500 to 3000 | CCc1cnc2c(c1)N([C@@H](CCNC)c1ccsc1)CC2 [Example 77, (S)-3-(6-Ethyl-2,3-dihydro-1H-pyrrolo[3,2-b]pyridin-1-yl)-N-methyl-3-(thiophen-3-yl)propan-1-amine] |
| < 100 | 500 to 3000 | CNCC[C@@H](c1cccs1)N1CCc2c(C#N)cccc21 [Example 111, (S)-1-(3-(Methylamino)-1-(thiophen-2-yl)propyl)indoline-4-carbonitrile] |
| < 100 | 500 to 3000 | CNCCC(c1cccs1)N1CCc2c(F)cccc21 (centres unmarked) [Example 67, 3-(4-Fluoroindolin-1-yl)-N-methyl-3-(thiophen-2-yl)propan-1-amine] |
| 500 to 1000 | 100 to 500 | CNCC[C@@H](c1ccsc1)N1CC(C)(C)c2ncc(F)cc21 [Example 88, (S)-3-(6-Fluoro-3,3-dimethyl-2,3-dihydro-1H-pyrrolo[3,2-b]pyridin-1-yl)-N-methyl-3-(thiophen-3-yl)propan-1-amine] |
| 100 to 500 | ≥ 3000 | CNCC[C@H](c1sccc1Cl)N1CCc2ncccc21 [Example 36, (R)-3-(3-Chlorothiophen-2-yl)-3-(2,3-dihydro-1H-pyrrolo[3,2-b]pyridin-1-yl)-N-methylpropan-1-amine] |
| 500 to 1000 | 500 to 3000 | CNCCC(c1ccsc1)N1CC(C)(C)c2ncccc21 (centres unmarked) [Example 13, 3-(3,3-Dimethyl-2,3-dihydro-1H-pyrrolo[3,2-b]pyridin-1-yl)-N-methyl-3-(thiophen-3-yl)propan-1-amine] |
| 500 to 1000 | ≥ 3000 | CCc1cnc2c(c1)N([C@@H](CCNC)c1cccs1)CC2 [Example 33, (S)-3-(6-Ethyl-2,3-dihydro-1H-pyrrolo[3,2-b]pyridin-1-yl)-N-methyl-3-(thiophen-2-yl)propan-1-amine] |
| 100 to 500 | 100 to 500 | CNCC[C@@H](c1ccsc1)N1CC(C)(C)c2nc(C(F)(F)F)ccc21 [Example 107, (S)-3-(3,3-Dimethyl-5-(trifluoromethyl)-2,3-dihydro-1H-pyrrolo[3,2-b]pyridin-1-yl)-N-methyl-3-(thiophen-3-yl)propan-1-amine] |
| 500 to 1000 | 100 to 500 | CNCCC(c1cccs1)N1CCc2nc(C)ccc21 (centres unmarked) [Example 11, N-methyl-3-(5-methyl-2,3-dihydro-1H-pyrrolo[3,2-b]pyridin-1-yl)-3-(thiophen-2-yl)propan-1-amine] |
| < 100 | 500 to 3000 | CNCCC(c1cccs1)N1CCc2c(F)cc(F)cc21 (centres unmarked) [Example 68, 3-(4,6-Difluoroindolin-1-yl)-N-methyl-3-(thiophen-2-yl)propan-1-amine] |
